Source: patent publication US11319316B2, “Compounds that induce degradation of anti-apoptotic Bcl-2 family proteins and the uses thereof” (BioVentures, LLC, priority 2016, dated 2022)
pEC50: −log10 of the molar value. Where two headings read alike, the source gives them in different places.

Key:
Format in all cases: cell-based
Normal WI38 (NSC) = assay: Viability of normal WI38 cells (NSC), 72 h, PI staining and flow cytometry
Method: (§1) Normal WI38 (NSC) and IR-induced senescent WI38 cells (IR-SC) were incubated with vehicle or increasing concentrations of compounds of Formula (I) or Formula (II) for 72 hours. The cells were digested with 0.25% trypsin and 1 mM EDTA, and harvested in PBS containing 2% FBS. After incubation with propidium iodide (PI, 100 ng/ml) in PBS at room temperature for 1 minute, cells were centrifuged at 1,200 rpm for 6 minutes to remove PI and then resuspended in PBS containing 2% FBS for analysis using a flow cytometer. Viable cells (PI-cells) were analyzed by flow cytometry at a constant flow rate to count the number of cells and calculated as a percentage of control cells treated with vehicle. Table 1 depicts the EC50 values of the compounds of Formula (I) and compounds of Formula (II) against normal WI38 and IR-induced senescent WI38.

[1] = system: IR-induced senescent WI38 cells (IR-SC); assay: Viability of IR-induced senescent WI38 cells (IR-SC), 72 h, PI staining and flow cytometry; conditions: for pEC50: IR-induced senescent WI38 cells, 72 hours, viable (PI-) cells as percentage of vehicle control; for Ratio NSC/SC: ratio of WI38 EC50 in NSC to EC50 in IR-SC
Method: as §1

RS4; 11 cancer cells = assay: Cancer cell viability by MTS, 72 h, RS4;11; conditions: RS4;11 cells
Method: (§2) RS4; 11 and NCI-H146 cancer cells were incubated with vehicle or increasing concentrations of compounds of Formula (I) and Formula (II). At 72 hours post-treatment cell viability was measured by MTS and EC50 was calculated as a percentage of control cells treated with vehicle. Table 1 depicts the EC50 values of compounds of Formula (I) and Formula (II) against RS4; 11 and NCI-H146.

NCI-H146 cancer cells = assay: Cancer cell viability by MTS, 72 h, NCI-H146
Method: as §2

Bcl-xL [2] = target: T1, Bcl-xL (Homo sapiens, UniProt Q07817); assay: Protein degradation assay (Western blot) in IR-SC WI38 cells; conditions: for Bcl-xL depletion in IR-SC WI38 cells: 1 μM (FIG. 4A)
T1 construct: endogenous in cells; host or cells: WI38 cells (normal NC-WI38 and ionizing-radiation-induced senescent IR-SC WI38)
Method: IR-SC WI38 cells were incubated with vehicle or increasing concentrations of XZ-14439 for 18 hours at increasing […] (FIG. 3A) and at a fixed concentration of XZ-14439 for increasing times (FIG. […]). The cells were digested with 0.25% trypsin and 1 mM EDTA, and harvested in RIPA lysis buffer with 1% Phosphatase Inhibitor Cocktail 3 and 1% Protease Inhibitor Cocktail. An equal amount of protein (15-30 μg/lane) from each cell extract was resolved on a 12% SDS-PAGE gel. Proteins were blotted onto a NOVEX PVDF membrane by electrophoresis. The membranes were blocked with TBS-T blocking buffer (5% nonfat milk in 25 mM Tris-HCL, pH 7.4; 3 mM KCl; […] NaCl; and 0.05% Tween) and probed with primary antibodies (at a predetermined optimal concentration) overnight at 4° C. or for 1 hour at room temperature. After extensive washing with TBS-T, the membranes were incubated with an appropriate peroxidase-conjugated secondary antibody for 1 hour at room temperature. After three washes with TBS-T, the proteins of interest were detected with ECL Western Blotting Detection Reagents and recorded with autoradiography (Pierce Biotech, Rockford, Ill., USA). The primary antibody Bcl-x (#2762), Bcl-2 antibody (#2872S) and β-actin (13E5, #4970) were purchased from Cell Signaling.
(§3) IR-SC WI38 (FIG. 4A) and RS4; 11 (FIG. 4B) cells were incubated with vehicle or increasing concentrations of compounds of Formula (I) or Formula (II) for 6 or 16 hours, at 1 μM (FIG. 4A) and 100 nm (FIG. 4B), respectively. The cells were harvested in RIPA lysis buffer with 1% Phosphatase Inhibitor Cocktail 3 and 1% Protease Inhibitor Cocktail. An equal amount of protein (15-30 μg/lane) from each cell extract was resolved on a 12% SDS-PAGE gel. Proteins were blotted onto a NOVEX PVDF membrane by electrophoresis. The membranes were blocked with TBS-T blocking buffer (5% nonfat milk in 25 mM Tris-HCL, pH 7.4; 3 mM KCl; 140 mM NaCl; and 0.05% Tween) and probed with primary antibodies (at a predetermined optimal concentration) overnight at 4° C. or for 1 hour at room temperature. After extensive washing with TBS-T, the membranes were incubated with an appropriate peroxidase-conjugated secondary antibody (Jackson ImmunoResearch Europe, Suffolk, UK) for 1 hour at room temperature. After three washes with TBS-T, the proteins of interest were detected with ECL Western Blotting Detection Reagents and recorded with autoradiography. The primary antibody Bcl-xl (#2762), Bcl-2 antibody (#2872S), Bcl-w (#2724S), Mcl-1 (#5453s) and β-actin (13E5, #4970) were purchased from Cell Signaling.

Bcl-xL [3] = target: T1, Bcl-xL; assay: Protein degradation assay (Western blot) in RS4;11 cells; design: dose or concentration left out as unconfirmed
Method: as §3, with “IR-SC WI38 (FIG. 4A) and RS4; 11 (FIG. 4B) cells were incubated with vehicle or increasing concentrations of compounds of Formula (I) or Formula (II) for 6 or 16 hours, at 1 μM (FIG. 4A) and 100 nm (FIG. 4B), respectively.” left out

[4] = viable (PI-) cells as percentage of vehicle control
[5] = Homo sapiens, WI-38, viable (PI-) cells as percentage of vehicle control

T1 sequence (Q07817 whole entry): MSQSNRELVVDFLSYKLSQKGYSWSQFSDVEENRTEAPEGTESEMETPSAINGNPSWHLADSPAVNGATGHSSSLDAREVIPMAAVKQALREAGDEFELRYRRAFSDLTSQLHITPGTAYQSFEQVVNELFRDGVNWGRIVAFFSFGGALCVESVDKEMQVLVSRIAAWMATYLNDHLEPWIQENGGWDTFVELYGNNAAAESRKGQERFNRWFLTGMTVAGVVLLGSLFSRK

Row | Compound | pEC50 (Normal WI38 (NSC); [4]) | pEC50 [1] | Ratio NSC/SC [1] | pEC50 (RS4; 11 cancer cells) | pEC50 (NCI-H146 cancer cells) | Bcl-xL depletion in IR-SC WI38 cells (Bcl-xL [2]) | Bcl-xL depletion in RS4; 11 cells (Bcl-xL [3]) | pEC50 (Normal WI38 (NSC); [5]) | pEC50 ([1]; Homo sapiens, WI-38) | pEC50 (RS4; 11 cancer cells; Homo sapiens) | pEC50 (NCI-H146 cancer cells; Homo sapiens) | Bcl-xL depletion in IR-SC WI38 cells, dose and time dependence (Bcl-xL [2]; increasing concentrations for 18 hours (FIG. 3A), fixed concentration for increasing times (FIG. 3B))
1 | CC1(C)CCC(c2ccc(Cl)cc2)=C(CN2CCN(c3ccc(C(=O)NS(=O)(=O)c4ccc(N[C@H](CCN5CCN(C(=O)CCCn6cc(COCCOCCNc7cccc8c7C(=O)N(C7CCC(=O)NC7=O)C8=O)nn6)CC5)CSc5ccccc5)c(S(=O)(=O)C(F)(F)F)c4)cc3)CC2)C1 (some centres unmarked) [PZ-15227] | < 5.00 | 6.97 | >92 | 6.94 | 7.16 | deplete Bcl-xL | deplete Bcl-xL |  |  |  |  | 
2 | CC1(C)CCC(c2ccc(Cl)cc2)=C(CN2CCN(c3ccc(C(=O)NS(=O)(=O)c4ccc(N[C@H](CCN5CCN(C(=O)CCCn6cc(COCCOCCOCCNc7cccc8c7C(=O)N(C7CCC(=O)NC7=O)C8=O)nn6)CC5)CSc5ccccc5)c(S(=O)(=O)C(F)(F)F)c4)cc3)CC2)C1 (stereo partly drawn) [XZ-14439, 4-(4-((4′-chloro-4,4-dimethyl-3,4,5,6-tetrahydro-[1,1′-biphenyl]-2-yl)methyl)piperazin-1-yl)-N-((4-(((2R)-4-(4-(4-(4-((2-(2-(2-((2-(2,6-dioxopiperidin-1,3-yl)-1,3-dioxoisoindolin-4-yl)amino)ethoxy)ethoxy)ethoxy)methyl)-1H-1,2,3-triazol-1-yl)butanoyl)piperazin-1-yl)-1-(phenylthio)butan-2-yl)amino)-3-((trifluoromethyl)sulfonyl)phenyl)sulfonyl)benzamide] |  |  | >20.88 |  |  |  |  | < 4.70 | 6.06 | 7.07 | 7.16 | depletes Bcl-xL in IR-SC WI38 cells in both a dose dependent (FIG. 3A) and time dependent (FIG. 3B) manner
3 | Cc1ncsc1-c1ccc(CNC(=O)[C@@H]2C[C@@H](O)CN2C(=O)[C@@H](NC(=O)CCC(=O)NCCOCCOCCNC(=O)N2CCN(CC[C@H](CSc3ccccc3)Nc3ccc(S(=O)(=O)NC(=O)c4ccc(N5CCN(CC6=C(c7ccc(Cl)cc7)CCC(C)(C)C6)CC5)cc4)cc3S(=O)(=O)C(F)(F)F)CC2)C(C)(C)C)cc1 [XZ-14529] |  |  |  |  |  |  |  | < 5.00 | < 5.00 | 6.08 | < 5.70 | 
4 | CC1(C)CCC(c2ccc(Cl)cc2)=C(CN2CCN(c3ccc(C(=O)NS(=O)(=O)c4ccc(N[C@H](CCN5CCN(C(=O)COCCOCCOCCOCCNc6cccc7c6C(=O)N(C6CCC(=O)NC6=O)C7=O)CC5)CSc5ccccc5)c(S(=O)(=O)C(F)(F)F)c4)cc3)CC2)C1 (some centres unmarked) [XZ-14540] |  |  | 8.86 |  |  |  |  | < 5.00 | 5.95 | 7.08 | 7.12 | 
5 | CC1(C)CCC(c2ccc(Cl)cc2)=C(CN2CCN(c3ccc(C(=O)NS(=O)(=O)c4ccc(N[C@H](CCN5CCN(CCOCCOCCNc6cccc7c6C(=O)N(C6CCC(=O)NC6=O)C7=O)CC5)CSc5ccccc5)c(S(=O)(=O)C(F)(F)F)c4)cc3)CC2)C1 (stereo partly drawn) [XZ-15405, 4-(4-((4′-chloro-4,4-dimethyl-3,4,5,6-tetrahydro-[1,1′-biphenyl]-2-yl)methyl)piperazin-1-yl)-N-((4-(((2R)-4-(4-(2-(2-(2-((2-(2,6-dioxopiperidin-3-yl)-1,3-dioxoisoindolin-4-yl)amino)ethoxy)ethoxy)ethyl)piperazin-1-yl)-1-(phenylthio)butan-2-yl)amino)-3-((trifluoromethyl)sulfonyl)phenyl)sulfonyl)benzamide] |  |  | >65.97 |  |  | deplete Bcl-xL | deplete Bcl-xL | < 5.00 | 6.82 | 7.61 |  | 
6 | CC1(C)CCC(c2ccc(Cl)cc2)=C(CN2CCN(c3ccc(C(=O)NS(=O)(=O)c4ccc(N[C@H](CCN5CCN(CCOCCNc6cccc7c6C(=O)N(C6CCC(=O)NC6=O)C7=O)CC5)CSc5ccccc5)c(S(=O)(=O)C(F)(F)F)c4)cc3)CC2)C1 (stereo partly drawn) [XZ-15416, 4-(4-((4′-chloro-4,4-dimethyl-3,4,5,6-tetrahydro-[1,1′-biphenyl]-2-yl)methyl)piperazin-1-yl)-N-((4-(((2R)-4-(4-(2-(2-((2-(2,6-dioxopiperidin-3-yl)-1,3-dioxoisoindolin-4-yl)amino)ethoxy)ethyl)piperazin-1-yl)-1-(phenylthio)butan-2-yl)amino)-3-((trifluoromethyl)sulfonyl)phenyl)sulfonyl)benzamide] |  |  | >64.02 |  |  | deplete Bcl-xL | deplete Bcl-xL | < 5.00 | > 6.81 | 7.51 | < 8.00 | 
7 | CC1(C)CCC(c2ccc(Cl)cc2)=C(CN2CCN(c3ccc(C(=O)NS(=O)(=O)c4ccc(N[C@H](CCN5CCN(CCOCCOCCOCCNc6cccc7c6C(=O)N(C6CCC(=O)NC6=O)C7=O)CC5)CSc5ccccc5)c(S(=O)(=O)C(F)(F)F)c4)cc3)CC2)C1 (stereo partly drawn) [XZ-15418, 4-(4-((4′-chloro-4,4-dimethyl-3,4,5,6-tetrahydro-[1,1′-biphenyl]-2-yl)methy)piperazin-1-yl)-N-((4-(((2R)-4-(4-(2-(2-(2-(2-((2-(2,6-dioxopiperidin-3-yl)-1,3-dioxoisoindolin-4-yl)amino)ethoxy)ethoxy)ethoxy)ethyl)piperazin-1-yl)-1-(phenylthio)butan-2-yl)amino)-3-((trifluoromethyl)sulfonyl)phenyl)sulfonyl)benzamide] | < 5.00 | 6.76 | >58.06 | 7.91 |  | deplete Bcl-xL | deplete Bcl-xL |  |  |  |  | 
8 | CC1(C)CCC(c2ccc(Cl)cc2)=C(CN2CCN(c3ccc(C(=O)NS(=O)(=O)c4ccc(N[C@H](CCN5CCN(C(=O)Cn6cc(COCCOCCNc7cccc8c7C(=O)N(C7CCC(=O)NC7=O)C8=O)nn6)CC5)CSc5ccccc5)c(S(=O)(=O)C(F)(F)F)c4)cc3)CC2)C1 (some centres unmarked) [XZ-15421] |  |  | >64.02 |  |  | deplete Bcl-xL | deplete Bcl-xL | < 5.00 | > 6.81 | 7.14 |  | 
